Data reported in patent US20220395497A1, “Cancer Treatment Using Camptothecin Derivatives” (priority 2019, published 2022).
Several values for one entry are separate records, joined by “and”; a condition that tells them apart may be missing. Equal values may be shown once.

System: adults with recurrence of glioblastoma multiforme (GBM)
Test: Phase 2 open-label study of IV AR-67 (7.5 mg/m2 once daily for 5 days, 21-day cycle) in recurrent GBM: adverse events (Safety Population, NCI-CTCAE). Cohort 1 = not received or not recently failed (>90 days) bevacizumab; Cohort 2 = recently (<90 days) failed bevacizumab
Assay type: in vivo, human
Method: This solution was reconstituted in dextrose 5% in water to a final concentration between 0.06-0.6 mg/mL Drug (7.5 mg/m2) was to be given until the onset of toxicity requiring discontinuation or tumor progression. Tumor response was assessed=14d after every second cycle and before every third cycle using MRI.

[1] = All Patients, N = 45, possibly, probably, or definitely related

In the case of `CC[C@@]1(O)C(=O)OCc2c1cc1n(c2=O)Cc2c-1nc1ccc(O)cc1c2[Si](C)(C)C(C)(C)C` [AR-67, (205)-7-tert-butyldimethysilyl-10-hydroxycamptothecin], the “TEAEs associated with laboratory abnormalities assessed as Grade 4 in toxicity, events” value (All Patients) is reported as “Three”, the “headache as TEAE leading to discontinuation, patients” value (All Patients) is reported as 3 and the “patients with AR-67 permanently discontinued due to an SAE” value (All Patients) is reported as “Three”. The “patients with AR-67 temporarily interrupted or stopped due to an SAE” value (All Patients) was “Six”, the “patients with dose modification due to an SAE” value (All Patients) was 2 and the “thrombocytopenia, anaemia, neutropenia, and leukopenia, each occurring in % of all patients” value (All Patients) was 11-18%. The “Death, No of Events” value (All Patients, N = 45) was 3, the “Death, patients (%)” value (All Patients, N = 45) was “(6.7) %” and the “SAE, No of Events” value (All Patients, N = 45) was 30. For the same molecule, the “TEAE Anaemia, patients (%)” value (All Patients, N = 45) was 15.6%, the “TEAE Confusional state, patients (%)” value (All Patients, N = 45) was 11.1% and the “TEAE Constipation, patients (%)” value (All Patients, N = 45) was 20.0%. The “TEAE Convulsion, patients (%)” value (All Patients, N = 45) was 8.9%, the “TEAE Definitely Related to AR-67, No of Events” value (All Patients, N = 45) was 55 and the “TEAE Diarrhoea, patients (%)” value (All Patients, N = 45) was 15.6%. For the same molecule, the “TEAE Dizziness, patients (%)” value (All Patients, N = 45) was 11.1%, the “TEAE Dyspepsia, patients (%)” value (All Patients, N = 45) was 8.9% and the “TEAE Eye Disorders, patients (%)” value (All Patients, N = 45) was 8.9%. For the same molecule, the “TEAE Flushing, patients (%)” value (All Patients, N = 45) was 11.1%, the “TEAE Gastrointestinal Disorders, patients (%)” value (All Patients, N = 45) was “(51.1) %” and the “TEAE General Disorders and Administration Site Conditions, patients (%)” value (All Patients, N = 45) was “(37.8) %”. For the same molecule, the “TEAE Headache, patients (%)” value (All Patients, N = 45) was “(22.2) %”, the “TEAE Hiccups, patients (%)” value (All Patients, N = 45) was 11.1% and the “TEAE Hyperglycaemia, patients (%)” value (All Patients, N = 45) was 8.9%. For the same molecule, the “TEAE Hypopho sphataemia, patients (%)” value (All Patients, N = 45) was 8.9%, the “TEAE Intensity Life Threatening, No of Events” value (All Patients, N = 45) was 4 and the “TEAE Intensity Life Threatening, patients (%)” value (All Patients, N = 45) was “(8.9) %”. The “TEAE Intensity Mild, No of Events” value (All Patients, N = 45) was 212/428 and 212, the “TEAE Intensity Mild, patients (%)” value (All Patients, N = 45) was “(68.9) %” and the “TEAE Intensity Moderate, No of Events” value (All Patients, N = 45) was 128/428 and 128. The “TEAE Intensity Moderate, patients (%)” value (All Patients, N = 45) was “(57.8) %”, the “TEAE Intensity Severe, No of Events” value (All Patients, N = 45) was 75 and the “TEAE Intensity Severe, patients (%)” value (All Patients, N = 45) was “(62.2) %”. The “TEAE Leukopenia, patients (%)” value (All Patients, N = 45) was 11.1%, the “TEAE Lymphocyte count decreased, patients (%)” value (All Patients, N = 45) was 11.1% and the “TEAE Muscular weakness, patients (%)” value (All Patients, N = 45) was 11.1%. The “TEAE Musculoskeletal and Connective Tissue Disorders, patients (%)” value (All Patients, N = 45) was “(28.9) %”, the “TEAE Musculoskeletal pain, patients (%)” value (All Patients, N = 45) was 6.7% and the “TEAE NCI-CTCAE Grade 1, No of Events” value (All Patients, N = 45) was 209. For the same molecule, the “TEAE NCI-CTCAE Grade 1, patients (%)” value (All Patients, N = 45) was “(66.7) %”, the “TEAE NCI-CTCAE Grade 2, No of Events” value (All Patients, N = 45) was 119 and the “TEAE NCI-CTCAE Grade 2, patients (%)” value (All Patients, N = 45) was “(51.1) %”. For the same molecule, the “TEAE NCI-CTCAE Grade 3, No of Events” value (All Patients, N = 45) was 82, the “TEAE NCI-CTCAE Grade 3, patients (%)” value (All Patients, N = 45) was “(66.7) %” and the “TEAE NCI-CTCAE Grade 4, No of Events” value (All Patients, N = 45) was 9. For the same molecule, the “TEAE NCI-CTCAE Grade 4, patients (%)” value (All Patients, N = 45) was “(20.0) %”, the “TEAE Nausea, patients (%)” value (All Patients, N = 45) was 20.0% and the “TEAE Nervous System Disorders, patients (%)” value (All Patients, N = 45) was “(51.1) %”. The “TEAE Neutropenia, patients (%)” value (All Patients, N = 45) was 13.3%, the “TEAE Neutrophil count decreased, patients (%)” value (All Patients, N = 45) was 13.3% and the “TEAE Not Related to AR-67, No of Events” value (All Patients, N = 45) was 117. The “TEAE Platelet count decreased, patients (%)” value (All Patients, N = 45) was 8.9%, the “TEAE Possibly Related to AR-67, No of Events” value (All Patients, N = 45) was 170 and the “TEAE Probably Related to AR-67, No of Events” value (All Patients, N = 45) was 79. For the same molecule, the “TEAE Psychiatric Disorders, patients (%)” value (All Patients, N = 45) was “(28.9) %”, the “TEAE Respiratory, Thoracic, and Mediastinal Disorders, patients (%)” value (All Patients, N = 45) was “(24.4) %” and the “TEAE Thrombocytopenia, patients (%)” value (All Patients, N = 45) was 17.8%. The “TEAE Vascular Disorders, patients (%)” value (All Patients, N = 45) was 17.8%, the “TEAE Vision blurred, patients (%)” value (All Patients, N = 45) was 8.9% and the “TEAE Vomiting, patients (%)” value (All Patients, N = 45) was 8.9%. For the same molecule, the “TEAE White blood cell count decreased, patients (%)” value (All Patients, N = 45) was 11.1%, the “TEAE leading to death, No of Events” value (All Patients, N = 45) was 17 and the “TEAE leading to early discontinuation, No of Events” value (All Patients, N = 45) was 10. For the same molecule, the “TEAE, No of Events” value (All Patients, N = 45) was 428, the “≥1 TEAE leading to death, patients (%)” value (All Patients, N = 45) was “(4.4) %” and the “1 related SAE, patients (%)” value [1] was “(24.4) %”. For the same molecule, the “related SAE, No of Events” value [1] was 19/29 and 19/30 and 11/30 and 19, the “related TEAE, No of Events” value [1] was 304 and the “SAE headache, patients” value (Cohort 1) was 1. The “SAE infections and infestations, events” value (Cohort 1) was 4, the “SAE infections and infestations, patients” value (Cohort 1) was 3 and the “SAE nervous system disorders, events” value (Cohort 1) was 3. The “SAE nervous system disorders, patients” value (Cohort 1) was 3, the “SAE respiratory, thoracic and mediastinal disorders, events” value (Cohort 1) was 3 and the “SAE respiratory, thoracic and mediastinal disorders, patients” value (Cohort 1) was 2. For the same molecule, the “Death, No of Events” value (Cohort 1, N = 30) was 1, the “Death, patients (%)” value (Cohort 1, N = 30) was “(3.3) %” and the “SAE, No of Events” value (Cohort 1, N = 30) was 16. The “TEAE Anaemia, patients (%)” value (Cohort 1, N = 30) was 23.3% and 23%, the “TEAE Blood and Lymphatic System Disorders, events” value (Cohort 1, N = 30) was 41 and the “TEAE Confusional state, patients (%)” value (Cohort 1, N = 30) was 10.0%. For the same molecule, the “TEAE Constipation, patients (%)” value (Cohort 1, N = 30) was 23.3% and 23%, the “TEAE Convulsion, patients (%)” value (Cohort 1, N = 30) was 10.0% and the “TEAE Definitely Related to AR-67, No of Events” value (Cohort 1, N = 30) was 36. For the same molecule, the “TEAE Definitely Related to AR-67, patients (%)” value (Cohort 1, N = 30) was “(40.0) %”, the “TEAE Diarrhoea, patients (%)” value (Cohort 1, N = 30) was 16.7% and the “TEAE Dizziness, patients (%)” value (Cohort 1, N = 30) was 16.7%. For the same molecule, the “TEAE Dyspepsia, patients (%)” value (Cohort 1, N = 30) was 13.3%, the “TEAE Eye Disorders, patients (%)” value (Cohort 1, N = 30) was “(10.0) %” and the “TEAE Flushing, patients (%)” value (Cohort 1, N = 30) was “(16.7) %”. The “TEAE Gastrointestinal Disorders, patients (%)” value (Cohort 1, N = 30) was “(50.0) %”, the “TEAE General Disorders and Administration Site Conditions, patients (%)” value (Cohort 1, N = 30) was “(36.7) %” and the “TEAE Headache, patients (%)” value (Cohort 1, N = 30) was 23.3% and 23%. The “TEAE Hiccups, patients (%)” value (Cohort 1, N = 30) was “(10.0) %”, the “TEAE Hyperglycaemia, patients (%)” value (Cohort 1, N = 30) was “(13.3) %” and the “TEAE Hypopho sphataemia, patients (%)” value (Cohort 1, N = 30) was “(13.3) %”. For the same molecule, the “TEAE Intensity Life Threatening, No of Events” value (Cohort 1, N = 30) was 3, the “TEAE Intensity Life Threatening, patients (%)” value (Cohort 1, N = 30) was “(10.0) %” and the “TEAE Intensity Mild, No of Events” value (Cohort 1, N = 30) was 177. The “TEAE Intensity Mild, patients (%)” value (Cohort 1, N = 30) was “(73.3) %”, the “TEAE Intensity Moderate, No of Events” value (Cohort 1, N = 30) was 100 and the “TEAE Intensity Moderate, patients (%)” value (Cohort 1, N = 30) was “(66.7) %”. For the same molecule, the “TEAE Intensity Severe, No of Events” value (Cohort 1, N = 30) was 59, the “TEAE Intensity Severe, patients (%)” value (Cohort 1, N = 30) was “(60.0) %” and the “TEAE Investigations SOC, events” value (Cohort 1, N = 30) was 101. For the same molecule, the “TEAE Leukopenia, patients (%)” value (Cohort 1, N = 30) was 16.7%, the “TEAE Lymphocyte count decreased, patients (%)” value (Cohort 1, N = 30) was 16.7% and the “TEAE Metabolism and Nutrition Disorders, patients (%)” value (Cohort 1, N = 30) was “(26.7) %”. For the same molecule, the “TEAE Muscular weakness, patients (%)” value (Cohort 1, N = 30) was 10.0%, the “TEAE Musculoskeletal and Connective Tissue Disorders, patients (%)” value (Cohort 1, N = 30) was “(33.3) %” and the “TEAE Musculoskeletal pain, patients (%)” value (Cohort 1, N = 30) was 10.0%.
